Results reported in patent US20250188169A1, “METHOD FOR TREATING CLONAL HEM[…] DISORDERS” (THE CHILDREN'S MEDICAL CENTER CORPORATION, priority 2022, published 2025).
Entries after “also recorded” stand apart in the source; their conditions may differ.

Key:
[1] = system: marrow myelomonocytes, lymphocytes and progenitor/precursors; test: Marrow cellular composition by flow cytometry; assay type: in vivo, zebrafish; conditions: 8 months post treatment
Experimental: FIG. 11 examines the survival curve of the fish in two cohorts. An event was finding the fish dead or moribund after overnight treatment; no fish died during the day or off treatment days or as a consequence of retroorbital bleeding. No statistical difference was found with p values >0.05 by two different tests between the groups. 17 DMSO and 13 DIMC fish were left for final analysis. Additionally, marrow cellular composition was analyzed at 8 months post treatment by flow cytometry.

asxl1-mutant clones = test: asxl1-mutant clonal dynamics in peripheral blood of mosaic asxl1-mutant zebrafish (VAF by sequencing); assay type: in vivo
Experimental: (§1) Zebrafish were generated with mosaic mutations in asxl1 using the TWISTR method (Avagyan et a1 Science 2021, PMID 34735227). Briefly, they were injected with guide-RNAs targeting asxl1 gene with Cas9 mRNA into 1-cell embryos of zebrafish, and grown to adulthood. At 3 months retroortibital bleeding was performed on the adult zebrafish and measure the size of the mutant clones in the peripheral blood by sequencing the genomic DNA at the targeting locus of asxl1. Zebrafish with at least 1 mutant allele of 5% of greater allele size were chosen for the cohorts, randomly assigned to be treated with either DMSO or NR4A1 inhibitor (DIM-C). The dose of DIM-C was determined in a previously conducted pilot experiment. Zebrafish with mosaic mutations in asxl1 are treated with either DMSO or an NR4A1 inhibitor (DIM-C) and analyzed over a three-month period. Peripheral blood was collected every month to determine the size of the mutant clones over time. […] RO=retro-orbital bleed, RO1=first RO, pre-treatment, RO2 through RO4=monthly RO bleeds following treatment.
Clonal hematopoiesis. Zebrafish were generated with mosaic mutations in asxl1 using the TWISTR method (Avagyan et a1 Science 2021, PMID 34735227). Briefly, they were injected with guide-RNAs targeting asxl1 gene with Cas9 mRNA into 1-cell embryos of zebrafish, and grown to adulthood. At 3 months retroortibital bleeding was performed on the adult zebrafish and the size of the mutant clones in the peripheral blood was measured by sequencing the genomic DNA at the targeting locus of asxl1. Zebrafish with at least 1 mutant allele of 5% of greater allele size were chosen for the cohorts, randomly assigned to be treated with either DMSO or NR4A1 inhibitor (DIM-C). Zebrafish with mosaic mutations in asxl1 were treated with either DMSO or an NR4A1 inhibitor (DIM-C) and analyzed over a three-month period. Peripheral blood was collected every month to determine the size of the mutant clones over time.
It was previously shown by early genetic targeting nr4a1 during development prevented clonal growth of mutant cells. Next, the hypothesis that pharmacologic inhibition of nr4a1 would halt or reduce mutant clonal growth over time was tested (FIG. 1). To test this hypothesis, a cohort of asxl1 mutant zebrafish were generated and screened for the presence of asxl1 mutant clone at at least 5% VAF in peripheral blood. The positively screened mutant fish were then treated either with DMSO or minimally toxic dose of DIM-c (Tocris compound) at 9.5 uM concentration overnight, between 14-16 hours long, 5 days of the week for 6 months. Peripheral blood from both groups was collected by retroorbital bleeding every month for measurement of the mutant clones in the blood by next generation sequencing (FIG. 2). N=are the numbers of fish at the initiation of treatment. A more detailed experimental schema with exact dates in order to calculate exact ages of the fish or post treatment timepoints is shown in FIG. 10.

zebrafish = test: Tolerability and survival of treated asxl1-mutant zebrafish; assay type: in vivo; conditions: over the three-month treatment period
Experimental: as §1
It was previously shown by early genetic targeting nr4a1 during development prevented clonal growth of mutant cells. […]
FIG. 11 examines the survival curve of the fish in two cohorts. […] Additionally, marrow cellular composition was analyzed at 8 months post treatment by flow cytometry.

## Oc1ccc(C(c2c[nH]c3ccccc23)c2c[nH]c3ccccc23)cc1 [DIM-C, 1,1-bis(3′-indolyl)-1-(p-hydroxyphenyl)methane]
[1]
  marrow cellular composition, difference between treatment groups: no difference between the treatment groups
asxl1-mutant clones; DIM-C treated zebrafish, three-month period, null hypothesis: no change
  change in asxl1 frameshift indel containing clone size compared to 0 (Wilcoxon rank test): no significant change
asxl1-mutant clones; DIM-C treatment, three-month period, peripheral blood
  change of asxl1-mutant clones with non-frameshift indels over time: similarly unchanged over time; also recorded: did not change significantly over time
asxl1-mutant clones; DIM-C vs DMSO, three-month period, monthly retro-orbital bleeds, peripheral blood
  expansion of asxl1-mutant clones with frameshift indels (VAF over time): less pronounced and plateaus by 3 months; also recorded: less expansion of asxl1-mutant clones
asxl1-mutant clones; DIM-C, all zebrafish (n=12), three-month period
  asxl1-mutant clonal expansion, clones with frameshift and non-frameshift indels, all zebrafish: significantly abated asxl1-mutant clonal expansion
asxl1-mutant clones; DIMC treatment arm, compared to 0 (no change over time), one sample t and Wilcoxon test
  change in size of the largest clone over treatment: had not changed significantly
asxl1-mutant clones; three-month period, clones with VAF of 5% or greater in at least 1 time point
  percent change of clone size (VAF at RO4 compared to VAF at RO1), frameshift-indel clones, compared to DMSO: significantly less expansion
zebrafish
  physical abnormalities in treated zebrafish: No physical abnormalities were observed
